Results from PMC8147216, “Genotoxicity Evaluation of Propyl-Propane-Thiosulfinate (PTS) from Allium genus Essential Oils by a Combination of Micronucleus and Comet Assays in Rats” (Foods, 2021).
“And” between values parts separate entries of the source, which are not always exact repeats. Equal entries are not always repeated. Where two headings read alike, the source gives them in different places.

Tests used:
bone marrow erythrocytes = experiment: In vivo micronucleus (MN) assay in bone marrow (OECD 474); parameters: species or system Wistar rats
Procedure: (§1) After acclimation time, 28 male and 28 female rats were randomly divided into control or treatment groups: the negative control (C−) (five male and five female rats), the solvent control (C sol) (five male and five female rats) treated with water with 0.3% Tween 80, and the positive control (C+) (three male and three female rats) treated with 200 mg/kg b.w. of ethylmethanesulfonate (EMS). The three PTS-treated groups (five male and five female rats per group) were exposed to 55.0, 17.4, and 5.5 mg of PTS/kg b.w. The number of animals was selected according to OECD 474 [27] and OECD 489 [28], which state five animals per sex and per group, and which also allow the use of at least three animals of both sexes treated with a positive control.
Doses were dissolved in water with Tween 80 (final concentration 0.3%) in a final volume of 1.5 mL. Tween 80 was previously used in genotoxicity in vivo studies by Mellado-Garcia et al. with the aim of better conveying alliaceous compounds with an oily nature. All groups were dosed at 0, 24, and 45 h via gavage using a stomach tube (Vygon, Ecouen, France) and were sacrificed 3 h after the final dose administration for the combined comet assay and MN endpoints. The time points of PTS administrations, as well as the timing of sacrifice, were selected following the criteria of OECD guideline 489 and Bowen et al..
(§2) Samples of the liver and stomach were extracted, and a small part of each tissue was immediately handled, as described in Section 2.6, for the standard and enzyme-modified comet assay. Moreover, blood samples were extracted and preserved in Vacutainer® sodium Heparin Tubes (Becton, Dickinson, Rutherford, NJ, USA). Furthermore, samples from the bone marrow of both femurs of each animal were gathered for the MN assay and were rapidly used to prepare smears (Figure 1). For the histopathologic study, sections of the liver and stomach were excised, rinsed with cold saline solution, and preserved in 10% buffered formalin for light microscopy, according to Llana-Ruiz-Cabello et al..
The MN test was performed according to the OECD guideline 474 [27] and Diez-Quijada et al.. The bone marrow of the femurs of the rats were mixed with a drop of fetal bovine serum. Therefore, slides were immersed in methanol, dried, and stained with Giemsa (Figure 1).
The polychromatic erythrocytes (PCE) among total erythrocytes (polychromatic and normochromic erythrocytes (NCE)) ratio and PCE for every NCE ratio were calculated by counting 500 erythrocytes per rat. The number of micronuclei found in immature erythrocytes was calculated by counting a total of 5000 […] per rat, and it was expressed as %MN.

[1] = tested on: liver, stomach and blood cells; experiment: In vivo standard comet assay (OECD 489); parameters: species or system Wistar rats; settings: any doses assayed, either sex
Procedure: as §1
(§3) Doses were dissolved in water with Tween 80 (final concentration 0.3%) in a final volume of 1.5 mL. Tween 80 was previously used in genotoxicity in vivo studies by Mellado-Garcia et al. with the aim of better conveying alliaceous compounds with an oily nature. […]
(§4) At least 150 randomly selected nuclei per rat were analyzed with the image-analysis-software Comet Assay IV (Perceptive Instruments, UK). The %DNA in the tail, automatically acquired by the software, were used to define each of the comets analyzed. […] The medians of the scored comets were taken to describe each animal, and the means of each group of doses and controls are represented in Figure 2.

[2] = tested on: liver, stomach and blood cells; experiment: In vivo enzyme-modified comet assay (Endo III, FPG); parameters: species or system Wistar rats; settings: any tissue assayed (liver, stomach, blood); 5.5, 17.4, 55.0 mg/kg
Procedure: as §1, §3, §4

liver and stomach [3] = experiment: Histopathological analysis of liver and stomach; format: in vivo, rats
From the text: as §2
Liver and stomach samples were processed and observed under the microscope according to Diez-Quijada et al.. A semiquantitative evaluation of the severity of lesions was scored as follows: 0, no significant lesions (0%); 1, minimal (<10%); 2, mild (11–25%); 3, moderate (26–50%); 4, severe (51–75%); and 5: very severe (>75%). Samples were individually examined by two unbiased and experienced observers, a veterinary pathologist, and an investigator (V.M-H. and R.M.).

rats [4] = experiment: Acute toxicity study to establish the maximum tolerated dose; format: in vivo
Procedure: The selection of PTS doses was calculated while taking into account a preceding acute toxicity study carried out by our research group, in which rats (8–10 weeks old) were administrated decreasing doses of PTS to establish the maximum tolerated dose (MTD). […] At that dose, no remarkable injury was detected in the treated rats, and no evidence of study-limiting toxicity was observed. Then, considering the ICH S2 Guidelines and the OECD protocols 474 [27] and 489 [28], the limit dose or MTD of 55.0 mg/kg b.w. was chosen as the highest dose, and two additional properly spaced dose levels (divided by √10) were also calculated. Consequently, the doses were set at 55.0, 17.4, or 5.5 mg of PTS/kg b.w.

rats [5] = experiment: Observation of clinical signs after treatment; format: in vivo, Wistar rats; settings: all levels of doses of PTS (5.5, 17.4, 55.0 mg/kg b.w.), oral gavage
From the text: After treatment, each rat was observed twice daily for clinical signs such as changes in the eye, fur, or skin, changes in gait and posture, and secretions.

male and female rats [6] = experiment: Combined in vivo MN-comet assay (overall genotoxicity); settings: male and female rats orally exposed, 55.0, 17.4 or 5.5 mg PTS/kg b.w.
Procedure: After acclimation time, 28 male and 28 female rats were randomly divided into control or treatment groups: the negative control (C−) (five male and five female rats), the solvent control (C sol) (five male and five female rats) treated with water with 0.3% Tween 80, and the positive control (C+) (three male and three female rats) treated with 200 mg/kg b.w. of ethylmethanesulfonate (EMS). The three PTS-treated groups (five male and five female rats per group) were exposed to 55.0, 17.4, and 5.5 mg of PTS/kg b.w. The number of animals was selected according to OECD 474 [27] and OECD 489 [28], which state five animals per sex and per group, and which also allow the use of at least three animals of both sexes treated with a positive control. Doses were dissolved in water with Tween 80 (final concentration 0.3%) in a final volume of 1.5 mL. Tween 80 was previously used in genotoxicity in vivo studies by Mellado-Garcia et al. with the aim of better conveying alliaceous compounds with an oily nature. All groups were dosed at 0, 24, and 45 h via gavage using a stomach tube (Vygon, Ecouen, France) and were sacrificed 3 h after the final dose administration for the combined comet assay and MN endpoints. The time points of PTS administrations, as well as the timing of sacrifice, were selected following the criteria of OECD guideline 489 and Bowen et al..

[7] = parameters: method as in PMID 27939830; settings: 8.75–280 µM, presence or absence of S9; cited from earlier work
L5178YTk+/− cells [8] = tested on: L5178YTk+/− cells; parameters: method as in PMID 27939830; settings: 0.9–15.65 µM, 24 and 48 h of treatment; cited from earlier work
L5178YTk+/− cells [9] = tested on: L5178YTk+/− cells; parameters: method as in PMID 27939830; settings: cited from earlier work
Caco-2 cells [10] = tested on: Caco-2 cells; parameters: method as in PMID 27939830; settings: 24 and 48 h, highest concentration assayed; cited from earlier work
Caco-2 cells [11] = tested on: Caco-2 cells; parameters: method as in PMID 27939830; settings: 24–48 h; cited from earlier work
liver and stomach [12] = tested on: liver and stomach; parameters: method as in PMID 27085469; settings: in vivo genotoxicity study; except glycogen accumulation in liver and slight degeneration in stomach at 55.0 mg/kg; cited from earlier work
male and female rats [13] = tested on: male and female rats; parameters: method as in PMID 27085469; settings: cited from earlier work
[14] = parameters: method as in PMID 26607106; settings: four in vitro genotoxicity assays; cited from earlier work
[15] = female, Wistar, rat, in vivo, 200 mg/kg, 48 h
[16] = male, Wistar, rat, in vivo, 200 mg/kg, 48 h
[17] = females, 5.5 mg/kg, gavage at 0, 24, 45 h, mean ± SD
[18] = females, 17.4 mg/kg, gavage at 0, 24, 45 h, mean ± SD
[19] = females, 55.0 mg/kg, gavage at 0, 24, 45 h, mean ± SD
[20] = males, 5.5 mg/kg, gavage at 0, 24, 45 h, mean ± SD
[21] = males, 17.4 mg/kg, gavage at 0, 24, 45 h, mean ± SD
[22] = males, 55.0 mg/kg, gavage at 0, 24, 45 h, mean ± SD

CCOS(C)(=O)=O [EMS, ethylmethanesulfonate, reference compound]
%MN (bone marrow erythrocytes; [15]): 2.53 ± 0.38 % | PCE/NCE (bone marrow erythrocytes; [15]): 0.53 ± 0.29 | PCE/Total (bone marrow erythrocytes; [15]): 0.33 ± 0.12 | %MN (bone marrow erythrocytes; [16]): 1.46 ± 0.72 % | PCE/NCE (bone marrow erythrocytes; [16]): 0.54 ± 0.12 | PCE/Total (bone marrow erythrocytes; [16]): 0.35 ± 0.05

CCCS[S+]([O-])CCC (stereo not drawn) [PTS, Propyl-propanethiosulfinate]
% of MN in immature erythrocytes vs controls (bone marrow erythrocytes; any groups (5.5, 17.4, 55 mg/kg) of either sex): not significantly changed | %MN (bone marrow erythrocytes; [17]): 0.86 ± 0.09% | PCE/NCE (bone marrow erythrocytes; [17]): 1.03 ± 0.43 | PCE/Total (bone marrow erythrocytes; [17]): 0.49 ± 0.10 | %MN (bone marrow erythrocytes; [18]): 0.74 ± 0.06% | PCE/NCE (bone marrow erythrocytes; [18]): 0.68 ± 0.36 | PCE/Total (bone marrow erythrocytes; [18]): 0.38 ± 0.13 | %MN (bone marrow erythrocytes; [19]): 1.03 ± 0.21% | PCE/NCE (bone marrow erythrocytes; [19]): 0.54 ± 0.28 | PCE/Total (bone marrow erythrocytes; [19]): 0.33 ± 0.11 | %MN (bone marrow erythrocytes; [20]): 0.46 ± 0.21% | PCE/NCE (bone marrow erythrocytes; [20]): 1.31 ± 0.30 | PCE/Total (bone marrow erythrocytes; [20]): 0.56 ± 0.05 | %MN (bone marrow erythrocytes; [21]): 0.72 ± 0.30% | PCE/NCE (bone marrow erythrocytes; [21]): 1.14 ± 0.34 | PCE/Total (bone marrow erythrocytes; [21]): 0.52 ± 0.08 | %MN (bone marrow erythrocytes; [22]): 0.46 ± 0.15% | PCE/NCE (bone marrow erythrocytes; [22]): 0.89 ± 0.21 | PCE/Total (bone marrow erythrocytes; [22]): 0.46 ± 0.06 | DNA strand breaks (%DNA in tail), standard comet assay [1]: No observed DNA stand breaks | frequency of Endo III or FPG-sensitive sites [2]: no remarkable changes | severity of lesions in glandular stomach (liver and stomach [3]; 55.0 mg/kg, hypertrophy of mucus cells and flaking epithelium, p < 0.05 vs controls): minimal to mild | severity of lesions in liver (liver and stomach [3]; 55.0 mg/kg, inflammatory infiltrates and centrilobular degeneration of hepatocytes, p < 0.05 vs controls): minimal (1, minimal (<10%)) | severity of changes in liver (liver and stomach [3]; 17.4 and 5.5 mg/kg, similar to negative and solvent controls): minimal (1, minimal (<10%)) | severity of histopathological changes in stomach (liver and stomach [3]; 17.4 and 5.5 mg/kg, statistically significant): minimal (1, minimal (<10%)) | lesions in the nonglandular stomach (liver and stomach [3]; positive control (EMS 200 mg/kg) and PTS 55.0 mg/kg groups, with pyogranulomatous inflammatory infiltrate): vacuolation of the squamous epithelium in the mucosa | mortality (rats [4]; initial dose 175.0 mg of PTS/kg b.w.): death of one of the three animals | maximum tolerated dose (MTD) (rats [4]; rat, in vivo): 55.0 mg of PTS/kg | clinical signs (rats [5]): No clinical signs were observed | in vivo genotoxicity (male and female rats [6]): not genotoxic | mutagenicity in the Ames test [7]: not mutagenic | mutagenicity in MLA assay (L5178YTk+/− cells [8]): not mutagenic | concentration with positive results in MN test in vitro (L5178YTk+/− cells [9]; metabolites (+S9)): ≥ 20 µM | concentration with positive results in MN test in vitro (L5178YTk+/− cells [9]; without S9, highest concentration assayed): 17.25 µM | concentration with positive results in standard comet assay (Caco-2 cells [10]): 280 µM and 280.0 µM | DNA damage after incubation with enzymes (Endo III or FPG) (Caco-2 cells [11]): no increase in DNA damage

CCCSS(=O)(=O)CCC [PTSO, propyl thiosulfinate oxide]
histopathological damage in liver and stomach (liver and stomach [12]): no relevant damage | in vivo genotoxicity (male and female rats [13]): lack of PTSO genotoxicity | in vitro genotoxicity responses [14]: contradictory responses
